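Five compound concentrations were applied to cells in 96-well plates for 48 hours; endpoints were derived by simple linear interpolation of the resulting dose-response curve. Abbreviation: GI50, concentration required for 50% inhibition of growth. Definition used: TGI = concentration required for complete inhibition of growth.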

This is an account of results in PubChem BioAssay (NCI).

Assay in all cases: growth of human tumour cells (NCI), 48 h
Assay [1] deals with K-562 leukemia.
For assay [2], the system named is CAKI-1 renal.
For assay [3], the system named is M14 melanoma.
For assay [4], the system named is SF-295 CNS.
Assay [5] relates to ACHN renal.
Assay [6] concerns MALME-3M melanoma.
Assay [7] concerns PC-3 prostate.
Assay [8] deals with DU-145 prostate.
Assay [9] has as its system T-47D breast.
The subject of assay [10] is NCI/ADR-RES ovarian.

In the case of `Cc1cccc(NC(=O)C(=O)C2C(=O)NC(=O)NC2=O)c1C`, the TGI in [1], in assay [2], in [3], in assay [4], in [5] and in [6] was > 100 µM each time.

As for `Nc1nc2c(ncn2C2OC(CO)C(O)C2N)c(=O)[nH]1` (stereo not given), the TGI in assay [1], in assay [2], in assay [3], in assay [4], in assay [5] and in [6] was > 100 µM throughout.

In the case of `COc1ccc(SC2c3cc(OC)c(OC)cc3Oc3nc(N)c(C#N)c(N)c32)cc1` (stereo not given), the GI50 is 1.21 µM in assay [3]; 1.6 µM in assay [4]; 1.74 µM in [5]; 1.16 µM in [7]; 1.73 µM in assay [8]; 1.3 µM in assay [9]. The GI50 in [6] was 1.46 µM. The TGI in assay [3] is 2.65 µM; in assay [4], 2.96 µM; in assay [5] it was 3.12 µM; in [7], 2.49 µM; in [8] it was 3.11 µM; in assay [9], 3.31 µM. This molecule showed a TGI in [6] of 2.89 µM.

As for `Cc1cc(C)cc(-n2c3nc(=O)n(C)c(=O)c-3nc3ccccc32)c1`, the TGI in assay [1] was 65.3 µM; in assay [2], 87.3 µM; in assay [3], 77.4 µM; in [4], > 100 µM; in assay [5] it was > 100 µM; in assay [6] it was 30.3 µM.

In the case of `CC1(O)C=CC2CCC1C2O` (stereo not given), the TGI in [1], in [2], in assay [3], in [4], in [5] and in assay [6] was > 100 µM each time.

For `CCOC(=O)C(C)(C)Oc1ccc2c(=O)cc(-c3ccccc3)oc2c1`, the TGI in [1] is 31.2 µM; in assay [3], 36.3 µM; in assay [4] it was 75 µM; in [5] it was > 100 µM; in [6] it was 37.6 µM.

For the molecule `NCCCCCS(=O)(=O)O`, the TGI in assay [1], in assay [3], in assay [5] and in assay [6] was > 100 µM each time.

As to `CC#C[C@@]1(O)CCCC[C@@H]1O`, the TGI in assay [1], in [3], in assay [4], in [5] and in assay [6] was > 100 µM each time.

On to `O=C(c1cc(O)ccc1O)c1ccccc1C(Cl)(Cl)Cl`, for which the TGI in assay [1], in assay [2], in [3], in assay [4], in assay [5] and in [6] was > 100 µM in each case.

Take `O=C(N/N=C(/c1nc2ccc(Cl)cc2[nH]c1=O)C(O)c1ccc(Cl)cc1Cl)c1ccncc1` (stereo not given): the TGI in assay [1], in assay [2], in assay [3], in [4], in [5] and in [6] was > 100 µM in each case.

Regarding `COc1cc([C@@H]2c3cc4c(cc3[C@@H](NC(=O)c3ccc(N)cc3)C3COC(=O)[C@@H]32)OCO4)cc(OC)c1O` (stereo not given in full), the TGI was 37.7 µM in [1]; 89.4 µM in assay [2]; > 100 µM in assay [3]; 95.8 µM in assay [4]; 4.9 µM in [5]; 19.8 µM in assay [6].

As to `Cc1ccc2nc3c(C)c(Cl)c(=O)cc-3sc2c1`, the TGI in assay [1] is 19 µM; in [2] it was > 100 µM; in assay [3] it was 36.4 µM; in [4], 81.3 µM; in [5], 87.3 µM; in [7], > 100 µM. Besides, the figures for the TGI in assay [8], in assay [9] and in assay [6] were > 100 µM, > 100 µM and > 71.5 µM, respectively.

With `COC(=O)/C=C/C(=O)C1C(C(=O)OC)C2(C(=O)OC)CCC1(C(=O)OC)N2` (stereo not given), the TGI in [1], in assay [2], in [3], in assay [4] and in assay [6] was > 100 µM throughout.

Turning to `CCC1C(C)c2c([nH]c3ccccc23)C2C(=O)N(c3ccccc3)C(=O)C21` (stereo not given), the TGI in [1] came out at 44.3 µM; in assay [3], 33.4 µM; in assay [4], 32.3 µM; in [5] it was 66.5 µM; in assay [6], 30.4 µM.

As for `COC(=O)C1=C(OC)c2cc3c(cc2C(c2cc(OC)c(OC)c(OC)c2)C1C(=O)OC)OCO3` (stereo not given), the TGI in assay [1], in [2], in assay [3], in [4], in [5] and in assay [6] was > 100 µM each time.

For `Cc1cnc[nH]c1=O`, the TGI in [1], in [2], in [3], in assay [4], in assay [5] and in [6] was > 100 µM in each case.

For `C=CN1C(=O)OC(c2ccccc2)C1c1ccccc1` (stereo not given), the TGI in [1], in assay [2], in assay [3], in assay [4], in assay [5] and in assay [6] was > 100 µM each time. The GI50 in assay [2], in assay [3], in assay [5] and in assay [6] was > 100 µM in each case.

Turning to `CCOC(=O)C1N(S(=O)(=O)c2ccc(C)cc2)CCC12c1ccccc1N(C(C)=O)C2C(/C=C/C(=O)OC)=C/C(=O)OC` (stereo not given), the TGI in assay [1], in assay [2], in [3], in assay [4], in [5] and in assay [6] was > 100 µM throughout.

As for `Cc1c[nH]c2c1C13CC1CN(C(=O)c1cc4cc(NC(=O)c5cc6ccccc6o5)ccc4[nH]1)C3=CC2=O` (stereo not given), the GI50 in [1], in assay [2], in assay [4] and in [10] was > 1.17 ng/mL throughout. Besides, the TGI in assay [2], in [3], in assay [4] and in [6] was < 0.001 µM each time.
